# Data from patent US11384067B2, “Pyrazole n-linked carbamoyl cyclohexyl acids as LPA antagonists” (BRISTOL-MYERS SQUIBB COMPANY, priority 2017, dated 2022).
# Target: T1, human LPA1 (Homo sapiens, UniProt Q92633)
# T1 construct: expressed in transfected cells; host or cells: Chinese hamster ovary (CHO) cells
# Assay: LPA1 functional antagonist assay (LPA-induced calcium flux)
# Type: cell-based
# Conditions: CHO cells overexpressing human LPA1, 10 nM LPA, read-out: hLPA1 IC50
# Protocol: The effectiveness of compounds of the present invention as LPA1 inhibitors can be determined in an LPA1 functional antagonist assay as follows:
# The cells were then equilibrated to room temperature for 30 minutes before the assay. […] IC50 values were determined by fitting data to a 4-parameter logistic equation (GraphPad Prism, San Diego Calif.).
# T1 sequence (Q92633 whole entry): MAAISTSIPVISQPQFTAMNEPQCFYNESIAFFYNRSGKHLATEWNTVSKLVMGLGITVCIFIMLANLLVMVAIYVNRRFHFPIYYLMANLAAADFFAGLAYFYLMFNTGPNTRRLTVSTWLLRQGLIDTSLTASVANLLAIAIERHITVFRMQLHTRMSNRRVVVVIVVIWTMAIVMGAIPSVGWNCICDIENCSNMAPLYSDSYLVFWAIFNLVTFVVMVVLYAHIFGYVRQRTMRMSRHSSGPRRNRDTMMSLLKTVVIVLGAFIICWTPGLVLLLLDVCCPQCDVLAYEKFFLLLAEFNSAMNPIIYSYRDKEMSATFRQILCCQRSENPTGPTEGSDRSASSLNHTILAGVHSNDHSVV
row,IC50,SMILES
1,12 nM,"Cc1nc(-c2cnn(C)c2CNC(=O)OCc2cccc(F)c2)ccc1O[C@H]1CCC[C@H](C(=O)O)C1 [Example 4, (1S,3S)-3-((6-(5-(((((3-fluorobenzyl)oxy)carbonyl)amino)methyl)-1-methyl-1H-pyrazol-4-yl)-2-methyl-pyridin-3-yl)oxy)cyclohexane-1-carboxylic acid]"
2,11 nM,"Cc1nc(-c2cnn(C)c2CNC(=O)O[C@H](C)c2ccccc2)ccc1O[C@H]1CCC[C@H](C(=O)O)C1 [Example 5, (1S,3S)-3-((2-methyl-6-(1-methyl-5-(((((R)-1-phenylethoxy)carbonyl)amino)methyl)-1H-pyrazol-4-yl)pyridin-3-yl)oxy)cyclohexane-1-carboxylic acid]"
3,7 nM,"Cc1nc(-c2cnn(C)c2CNC(=O)OCc2cc(F)cc(F)c2)ccc1O[C@H]1CCC[C@H](C(=O)O)C1 [Example 6, (1S,3S)-3-((6-(5-(((((3,5-difluoro-benzyl)oxy)carbonyl)amino)methyl)-1-methyl-1H-pyrazol-4-yl)-2-methyl-pyridin-3-yl)oxy)cyclohexane-1-carboxylic acid]"
4,280 nM,"Cc1cccc(COC(=O)NCc2c(-c3ccc(O[C@H]4CCC[C@H](C(=O)O)C4)cn3)cnn2C)c1 [Example 7, (1S,3S)-3-((6-(1-methyl-5-(((((3-methylbenzyl)oxy)carbonyl)amino)methyl)-1H-pyrazol-4-yl)pyridin-3-yl)oxy)cyclohexane-1-carboxylic acid]"
5,111 nM,"Cn1ncc(-c2ccc(O[C@H]3CCC[C@H](C(=O)O)C3)cn2)c1CNC(=O)OCc1cc(F)cc(F)c1 [Example 8, (1S,3S)-3-((6-(5-(((((3,5-difluoro-benzyl)oxy)carbonyl)amino)methyl)-1-methyl-1H-pyrazol-4-yl)pyridin-3-yl)oxy)cyclohexane-1-carboxylic acid]"
6,71 nM,"Cn1ncc(-c2ccc(O[C@H]3CCC[C@H](C(=O)O)C3)cn2)c1CNC(=O)OCc1cc(F)ccc1F [Example 9, (1S,3S)-3-((6-(5-(((((2,5-difluoro-benzyl)oxy)carbonyl)amino)methyl)-1-methyl-1H-pyrazol-4-yl)pyridin-3-yl)oxy)cyclohexane-1-carboxylic acid]"
7,1660 nM,"CN(Cc1c(-c2ccc(O[C@H]3CCC[C@H](C(=O)O)C3)cn2)cnn1C)C(=O)OCc1cc(F)ccc1F [Example 10, (1S,3S)-3-((6-(5-(((((2,5-difluoro-benzyl)oxy)carbonyl)(methyl)amino)methyl)-1-methyl-1H-pyrazol-4-yl)pyridin-3-yl)oxy)cyclohexane-1-carboxylic acid]"
8,16 nM,"CCCCCOC(=O)NCc1c(-c2ccc(O[C@H]3CCC[C@H](C(=O)O)C3)cn2)cnn1C [Example 12, (1S,3S)-3-((6-(1-methyl-5-((((pentyl-oxy)carbonyl)amino)methyl)-1H-pyrazol-4-yl)pyridin-3-yl)oxy)cyclohexane-1-carboxylic acid]"
9,834 nM,"CCCCCCOC(=O)NCc1c(-c2ccc(O[C@H]3CCC[C@H](C(=O)O)C3)cn2)cnn1C [Example 13, (1S,3S)-3-((6-(5-((((hexyloxy)carbonyl)amino)methyl)-1-methyl-1H-pyrazol-4-yl)pyridin-3-yl)oxy)cyclohexane-1-carboxylic acid]"
10,207 nM,"Cn1ncc(-c2ccc(O[C@H]3CCC[C@H](C(=O)O)C3)cn2)c1CNC(=O)OCC(C)(C)C [Example 14, (1S,3S)-3-((6-(1-methyl-5-((((neo-pentyloxy)carbonyl)amino)methyl)-1H-pyrazol-4-yl)pyridin-3-yl)oxy)cyclohexane-carboxylic acid]"
11,2 nM,"Cc1cccc(COC(=O)NCc2c(-c3ccc(O[C@H]4CCC[C@H](C(=O)O)C4)c(C)n3)cnn2C)c1 [Example 15, (1S,3S)-3-((2-methyl-6-(1-methyl-5-(((((3-methylbenzyl)oxy)carbonyl)amino)methyl)-1H-pyrazol-4-yl)pyridin-3-yl)oxy)cyclohexane-1-carboxylic acid]"
12,23 nM,"C[C@@H](OC(=O)NCc1c(-c2ccc(O[C@H]3CCC[C@H](C(=O)O)C3)cn2)cnn1C)c1ccccc1 [Example 16, (1S,3S)-3-((6-(1-methyl-5-(((((R)-1-phenylethoxy)carbonyl)amino)methyl)-1H-pyrazol-4-yl)pyridin-3-yl)oxy)cyclohexane-1-carboxylic acid]"
13,4 nM,"CCCCCOC(=O)NCc1c(-c2ccc(O[C@H]3CCC[C@H](C(=O)O)C3)c(C)n2)cnn1C [Example 19, (1S,3S)-3-((2-methyl-6-(1-methyl-5-((((pentyloxy)carbonyl)amino)methyl)-1H-pyrazol-4-yl)pyridin-3-yl)oxy)cyclohexane-1-carboxylic acid]"
14,275 nM,"CCCOC(=O)NCc1c(-c2ccc(O[C@H]3CCC[C@H](C(=O)O)C3)c(C)n2)cnn1C [Example 20, (1S,3S)-3-((2-methyl-6-(1-methyl-5-(((propoxycarbonyl)amino)methyl)-1H-pyrazol-4-yl)pyridin-3-yl)oxy)cyclohexane-1-carboxylic acid]"
15,182 nM,"Cc1cccc(COC(=O)NCc2c(-c3ccc(O[C@H]4CCC[C@H](C(=O)O)C4)cn3)cnn2C)c1 [Example 21, (1S,3S)-3-((6-(1-methyl-5-(((((3-methylbenzyl)oxy)carbonyl)amino)methyl)-1H-pyrazol-4-yl)pyridin-3-yl)oxy)cyclohexane-1-carboxylic acid]"
16,355 nM,"Cn1ncc(-c2ccc(O[C@H]3CCC[C@H](C(=O)O)C3)cn2)c1CNC(=O)OCCc1ccccc1 [Example 22, (1S,3S)-3-((6-(1-methyl-5-(((phen-ethoxycarbonyl)amino)methyl)-1H-pyrazol-4-yl)pyridin-3-yl)oxy)cyclohexane-1-carboxylic acid]"

row,SMILES,IC50
1,"CCCCOC(=O)NCc1c(-c2ccc(O[C@H]3CCC[C@H](C(=O)O)C3)c(C)n2)cnn1C [Example 1, (1S,3S)-3-((6-(5-(((Butoxycarbonyl)amino)methyl)-1-methyl-1H-pyrazol-4-yl)-2-methylpyridin-3-yl)oxy)cyclohexanecarboxylic Acid]",28 nM
2,"CCCCOC(=O)N(C)Cc1c(-c2ccc(O[C@H]3CCC[C@H](C(=O)O)C3)c(C)n2)cnn1C [Example 2, (1S,3S)-3-((6-(5-(((Butoxycarbonyl)(methyl)amino)methyl)-1-methyl-1H-pyrazol-4-yl)-2-methylpyridin-3-yl)oxy)cyclohexanecarboxylic Acid]",49 nM
3,"CC(C)COC(=O)NCc1c(-c2ccc(O[C@H]3CCC[C@H](C(=O)O)C3)cn2)cnn1C [Example 17, (1S,3S)-3-((6-(5-(((isobutoxy-carbonyl)amino)methyl)-1-methyl-1H-pyrazol-4-yl)pyridin-3-yl)oxy)cyclohexane-1-carboxylic acid]",1640 nM
4,"CCCCOC(=O)NCc1c(-c2ccc(O[C@H]3CCC[C@H](C(=O)O)C3)cn2)cnn1C [Example 18, (1S,3S)-3-((6-(5-(((butoxycarbonyl)amino)methyl)-1-methyl-1H-pyrazol-4-yl)pyridin-3-yl)oxy)cyclohexane-1-carboxylic acid]",325 nM
5,"CCCCOC(=O)N(C)Cc1c(-c2ccc(O[C@H]3CCC[C@H](C(=O)O)C3)cn2)cnn1C [Example 23, (1S,3S)-3-((6-(5-(((butoxycarbonyl)(methyl)amino)methyl)-1-methyl-1H-pyrazol-4-yl)pyridin-3-yl)oxy)cyclohexane-1-carboxylic acid]",243 nM
